Format in all cases: in vivo
In assay [1] the test system is Botrytis elliptica. Description: Field trials, control of lily gray mold; disease severity. The note with it: antagonist 1 × 10^5 cfu/ml or 100 ppm flusilazole, three applications, recorded 14 days after the last application, scale 0 to 4. The procedure: Lily fields in Taipei and I-Lan counties were selected for this experiment. Suspensions of the B190 and Botrytis elliptica were adjusted to about 1×10^5 cfu/ml and 1×10^3 conidia/ml, respectively, before application. 100 ppm of flusilazole (37% Emulsion, Du Pont, USA) was used for comparison. After spraying B190 or flusilazole by sprayer (MS sprayer, Taiwan), 5 ml of the spore suspension of Botrytis elliptica was sprayed onto each 100-day-old lily plant. A total of three sprays at 10-day intervals were applied. Each treatment consisted of 100 plants with 4 replicates. Every replicate was planted on a plot, which was 30 m long and 2 m wide. All the treatments were arranged based on randomized complete block design. Two weeks after the last spray, disease severity was assessed and analyzed as above-mentioned.

Assay [2] relates to Botrytis elliptica. Nature of the assay: B190 formulations on Botrytis elliptica infected lilies in field. Particulars: B190 1 × 10^5 cfu/ml, 3 applications (10 days/interval), fourteen days after the last application, scale 0 to 4. The procedure:
Bacillus amyloliquefaciens B190 was cultured in a flask containing 1% rice chaff and 99% de-ion water. Then the flask was positioned on a rotary shaker located in an incubator. B190 was incubated at an ambient temperature of 25±5° C. for 3 days. Thereafter, the cultured B190 was collected by means of centrifugation (3000 rpm/10 minutes; Tomy CM-60 RN, Seiko, Japan). The pellet mixed with 1% (w/v) kaolin was used as a wettable powder (WP). The pellet mixed with 0.025% (v/v) heavy mineral oil and 0.1% Tween 80 was served as an emulsion (E).
Different chemicals or adjuvants were added to the wettable powder, emulsion or B190-containing filtrate as described above for investigating their inhibitory ability on lilies in the field. These chemicals include 0.025% Ca(OH)2, 0.05% Na2CO3, 0.025% NH4NO3 and 0.025% K2HPO4. The adjuvants comprise 0.1% Tween 80 and 0.05% mineral oil.
Unformulated B. amyloliquefaciens B190 and 100 p.p.m. flusilazole were used as controls. In addition, uninoculated and inoculated lily plants with B. elliptica were also included as controls. Applications of these treatments were carried out when flowering tissues reached 100 to 120 mm in diameter. Treatments were applied three times with intervals of 10 days. […] After inoculating B. elliptica for ten days, disease severity was scored as described above.

For assay [3], the system named is Botrytis elliptica. Nature of the assay: B190 formulations on Botrytis elliptica infected lilies in greenhouse. The note with it: B190 […] cfu/ml, 3 applications (10 days/interval), flusilazole 100 p.p.m., recorded ten days after the last application, scale 0 to 4. The procedure:
Bacillus amyloliquefaciens B190 was cultured in a flask containing 1% rice chaff and 99% de-ion water. The flask was then positioned on a rotary shaker located in an incubator. B190 was incubated at 25±5° C. for 3 days. Thereafter, the B190-containing solution was filtered for application in the following experiments.
Different chemicals or adjuvants were added to the B190-containing filtrate for investigating their inhibitive capability on Botrytis elliptica infected lilies in greenhouse. The chemicals include 0.025% Ca(OH)2, 0.05% Na2CO3, 0.025% NH4NO3 and 0.025% K2HPO4. The adjuvants comprise 0.1% Tween 80 and 0.05% mineral oil.
Unformulated B. amyloliquefaciens B190 and 100 p.p.m. flusilazole were used as controls. In addition, uninoculated and inoculated lily plants with B. elliptica were also included as controls. Applications of these treatments were carried out when flowering tissues reached 30 to 50 mm in diameter. Treatments were applied three times with intervals of 10 days. Thereafter, 5 ml of B. elliptica spore suspension (1×10^3 conidia/ml) was inoculated on lily plants except the uninoculated control. Each different treatment had four replicates, and 5 lily plants were applied in every replicate. All treatments were arranged in a randomized complete block design. After inoculating B. elliptica for ten days, disease severity was scored as described above.

On to `C[Si](Cn1cncn1)(c1ccc(F)cc1)c1ccc(F)cc1` [Flusilazole, flusilazole], for which the Disease severity is recorded as 0.80 b with Botrytis elliptica [1] (I-Lan); 0.31 bc in the assay on Botrytis elliptica [1] (Taipei); 0.23 cd in the assay on Botrytis elliptica [2] (I: two trials in I-Lan county); 0.39 bc in the assay on Botrytis elliptica [2] (II: two trials in NTU experimental farm); 0.32 ef with Botrytis elliptica [3].

Values taken from patent US6960342B2, “Method for inhibiting pathogenic fungi in plants using Bacillus amyloliquefaciens” (National Taiwan University, priority 2002, dated 2005).
